Experimental data reported in US20250205344A1, “2,4-DIOXOTETRAHYDROPYRIMIDINYL DERATIVES AS DEGRONS IN PROTACS” (GLAXOSMITHKLINE INTELLECTUAL PROPERTY DEVELOPMENT LIMITED, priority 2022, published 2025).
Structures can show the parent of a compound that is named as a salt.

Target: T1, Androgen Receptor (Homo sapiens, UniProt P10275, T878A)
T1 construct: the AR gene was modified, using CRISPR/Cas9 editing, so the expressed AR protein included an 11 amino acid HiBiT tag; endogenous in cells; host or cells: clonal LnCaP-derived line, AR gene edited by CRISPR/Cas9
Assay: Androgen Receptor Degradation Assay (Nano-Glo HiBiT)
Assay type: cell-based
Conditions: LNCaP, 18 h, HiBiT-tagged AR in human LnCaP cells, read-out: mean asymptote max
Protocol: Degradation of Androgen Receptor protein in human LnCaP cells treated with PROTACs was quantified using the Nano-Glo® HiBiT Lytic Detection System (Promega) in 384 well assay plate format. A clonal LnCaP derived cell line was first established in which the AR gene was modified, using CRISPR/Cas9 editing, so the expressed AR protein included an 11 amino acid HiBiT tag at its amino-terminus. 10 mM DMSO stock solutions of PROTACs were prepared and diluted across an 11 concentration, 3 fold increment range, and 25 nL dispensed into a white opaque bottomed 384 well assay plate (Thermofisher) using an acoustic ECHO dispenser (Labcyte). […] For the assay, cells were detached from flask and resuspended with assay medium (FluoroBrite™ DMEM supplemented with 10% heat inactivated FBS, penicillin 50 U/mL and streptomycin 50 ug/mL (Thermofisher)). The cell suspension was centrifuged at 400 g for 5 min and the pellet resuspended in assay medium. 25 μL of cell suspension containing 10,000 cells was dispensed into each well of the assay plate containing the test compounds, which was then incubated for 18 h at 37° C./5% CO2. Control wells were included on each assay plate, with assay medium without cells being the no AR remaining 100% effect control, and cells treated with DMSO vehicle only, without PROTAC, the 0% effect control. 25 μL of Nano-Glo® HiBiT lysis buffer supplemented with LgBiT protein and Nano-Glo® substrate (Promega) was added to each well and the plate shaken at 500 rpm for 10 min at room temperature. The intensity of luminescence was measured using a PHERAstar microplate reader (BMG Labtech) and the % AR protein remaining in each well calculated by normalising the raw luminescence value to the above control wells. Parameters corresponding to the potency and efficacy estimates of the PROTACs were obtained from these normalised luminescence values using software (IDBS ActivityBase). These included the DC50 and the Dmax estimates. Two versions of the DC50, called relative DC50 and absolute DC50, were typically generated. These are the inflection point of a fitted 4 parameter sigmoidal response curve and the interpolated concentration of PROTAC corresponding to 50% of the protein being degraded, respectively. The Dmax parameter was the maximum experimentally observed degradation and the asymptote max parameter the fitted response curve asymptote maximum.

T1 sequence (P10275 whole entry T878A): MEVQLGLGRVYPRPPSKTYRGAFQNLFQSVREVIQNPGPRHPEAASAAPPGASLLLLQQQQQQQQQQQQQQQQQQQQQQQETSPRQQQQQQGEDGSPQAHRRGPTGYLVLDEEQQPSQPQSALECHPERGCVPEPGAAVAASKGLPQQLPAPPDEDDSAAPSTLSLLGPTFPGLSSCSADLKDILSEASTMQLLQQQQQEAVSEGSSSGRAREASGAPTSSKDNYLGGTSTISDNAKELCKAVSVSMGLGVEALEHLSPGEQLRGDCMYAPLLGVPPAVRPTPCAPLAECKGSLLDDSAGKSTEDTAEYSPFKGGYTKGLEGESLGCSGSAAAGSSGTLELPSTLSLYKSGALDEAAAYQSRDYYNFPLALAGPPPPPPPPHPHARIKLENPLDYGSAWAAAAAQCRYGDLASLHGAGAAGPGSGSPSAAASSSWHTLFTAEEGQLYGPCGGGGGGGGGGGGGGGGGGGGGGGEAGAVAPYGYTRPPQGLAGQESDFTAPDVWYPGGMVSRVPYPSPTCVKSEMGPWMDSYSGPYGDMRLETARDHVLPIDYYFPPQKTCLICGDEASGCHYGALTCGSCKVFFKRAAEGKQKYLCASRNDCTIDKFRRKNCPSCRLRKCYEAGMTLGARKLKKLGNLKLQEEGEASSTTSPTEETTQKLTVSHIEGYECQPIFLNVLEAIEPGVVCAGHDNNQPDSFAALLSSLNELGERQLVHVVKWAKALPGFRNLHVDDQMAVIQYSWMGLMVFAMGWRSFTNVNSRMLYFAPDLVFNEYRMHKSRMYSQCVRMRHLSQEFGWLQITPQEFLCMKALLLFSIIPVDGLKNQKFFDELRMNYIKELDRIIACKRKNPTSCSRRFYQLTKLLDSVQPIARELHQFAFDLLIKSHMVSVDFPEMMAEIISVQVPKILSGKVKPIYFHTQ
T1 sequence (Q96SW2 whole entry partner): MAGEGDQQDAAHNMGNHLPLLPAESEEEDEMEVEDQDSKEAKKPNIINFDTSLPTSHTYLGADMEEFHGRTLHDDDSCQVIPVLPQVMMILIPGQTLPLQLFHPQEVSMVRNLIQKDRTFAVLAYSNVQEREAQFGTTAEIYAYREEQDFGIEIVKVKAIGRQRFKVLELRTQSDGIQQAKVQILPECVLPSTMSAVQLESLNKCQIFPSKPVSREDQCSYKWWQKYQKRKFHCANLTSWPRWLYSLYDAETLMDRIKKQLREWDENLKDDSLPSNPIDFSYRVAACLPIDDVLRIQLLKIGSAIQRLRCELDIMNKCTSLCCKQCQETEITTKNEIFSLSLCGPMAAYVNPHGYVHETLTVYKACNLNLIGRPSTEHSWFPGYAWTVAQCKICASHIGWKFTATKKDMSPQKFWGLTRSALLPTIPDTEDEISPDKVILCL
T1 sequence (Q16531 whole entry partner): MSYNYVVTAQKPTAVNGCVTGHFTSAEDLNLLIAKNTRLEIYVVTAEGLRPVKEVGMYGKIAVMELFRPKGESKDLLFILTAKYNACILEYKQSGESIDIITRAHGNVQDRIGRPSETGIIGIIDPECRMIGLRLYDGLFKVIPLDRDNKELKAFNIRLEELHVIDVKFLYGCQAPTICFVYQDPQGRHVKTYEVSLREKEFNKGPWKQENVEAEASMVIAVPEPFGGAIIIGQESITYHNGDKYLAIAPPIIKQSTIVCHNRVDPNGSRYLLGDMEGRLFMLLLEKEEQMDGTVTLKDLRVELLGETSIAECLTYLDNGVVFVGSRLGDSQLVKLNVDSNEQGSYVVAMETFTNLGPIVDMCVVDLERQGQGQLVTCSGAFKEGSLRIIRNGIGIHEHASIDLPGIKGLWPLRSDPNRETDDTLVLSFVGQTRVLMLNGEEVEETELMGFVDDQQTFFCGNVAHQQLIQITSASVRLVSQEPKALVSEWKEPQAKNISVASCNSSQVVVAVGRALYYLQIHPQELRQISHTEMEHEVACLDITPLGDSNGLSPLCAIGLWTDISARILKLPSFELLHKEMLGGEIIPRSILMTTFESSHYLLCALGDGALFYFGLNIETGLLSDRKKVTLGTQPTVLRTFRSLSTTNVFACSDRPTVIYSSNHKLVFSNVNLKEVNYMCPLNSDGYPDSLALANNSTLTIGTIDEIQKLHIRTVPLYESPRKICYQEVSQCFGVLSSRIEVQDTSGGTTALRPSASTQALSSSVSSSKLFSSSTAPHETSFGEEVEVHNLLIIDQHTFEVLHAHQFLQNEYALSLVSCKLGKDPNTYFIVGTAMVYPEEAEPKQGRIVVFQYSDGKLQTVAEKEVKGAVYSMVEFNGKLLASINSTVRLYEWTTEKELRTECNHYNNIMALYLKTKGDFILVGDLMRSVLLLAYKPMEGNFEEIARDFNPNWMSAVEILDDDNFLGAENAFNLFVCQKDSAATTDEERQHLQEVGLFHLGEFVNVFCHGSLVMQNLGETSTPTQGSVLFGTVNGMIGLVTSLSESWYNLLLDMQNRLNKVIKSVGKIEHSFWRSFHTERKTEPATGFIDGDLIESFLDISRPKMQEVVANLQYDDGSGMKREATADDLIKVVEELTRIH

| Dmax [%] | SMILES |
| --- | --- |
| ≥ 50 | N#Cc1ccc(O[C@H]2CC[C@H](NC(=O)c3ccc(N4CCC(CN5CC[C@H](n6ccc7c(N8CCC(=O)NC8=O)cccc76)[C@H](F)C5)CC4)nn3)CC2)cc1Cl [EAR156, N-((1r,4r)-4-(3-Chloro-4-cyanophenoxy)cyclohexyl)-6-(4-(((3R,4S)-4-(4-(2,4-dioxotetrahydropyrimidin-1(2H)-yl)-1H-indol-1-yl)-3-fluoropiperidin-1-yl)methyl)piperidin-1-yl)pyridazine-3-carboxamide, hydrochloride] |
| ≥ 50 | N#Cc1ccc(O[C@H]2CC[C@H](NC(=O)c3ccc(N4CCC(CN5CCC(n6ncc7c(N8CCC(=O)NC8=O)cc(Cl)cc76)CC5)CC4)nn3)CC2)cc1Cl [EAR34, 6-(4-((4-(6-Chloro-4-(2,4-dioxotetrahydropyrimidin-1(2H)-yl)-1H-indazol-1-yl)piperidin-1-yl)methyl)piperidin-1-yl)-N-((1r,4r)-4-(3-chloro-4-cyanophenoxy)cyclohexyl)pyridazine-3-carboxamide hydrochloride] |
| ≥ 50 | N#Cc1ccc(O[C@H]2CC[C@H](NC(=O)c3ccc(N4CCC(CN5CCC(n6ccc7c(N8CCC(=O)NC8=O)cccc76)CC5)CC4)cn3)CC2)cc1Cl [EAR186, N-((1r,4r)-4-(3-Chloro-4-cyanophenoxy)cyclohexyl)-5-(4-((4-(4-(2,4-dioxotetrahydropyrimidin-1(2H)-yl)-1H-indol-1-yl)piperidin-1-yl)methyl)piperidin-1-yl)picolinamide] |
| ≥ 50 | N#Cc1ccc(O[C@H]2CC[C@H](NC(=O)c3cnc(N4CCC(CN5CCC(n6ncc7c(N8CCC(=O)NC8=O)cccc76)CC5)CC4)cn3)CC2)cc1C(F)(F)F [EAR38, N-((1r,4r)-4-(4-Cyano-3-(trifluoromethyl)phenoxy)cyclohexyl)-5-(4-((4-(4-(2,4-dioxotetrahydropyrimidin-1(2H)-yl)-1H-indazol-1-yl)piperidin-1-yl)methyl)piperidin-1-yl)pyrazine-2-carboxamide hydrochloride] |
| ≥ 50 | N#Cc1ccc(O[C@H]2CC[C@H](NC(=O)c3ccc(N4CCC(CN5CC[C@H](n6ccc7c(N8CCC(=O)NC8=O)cccc76)[C@@H](F)C5)CC4)nn3)CC2)cc1Cl [EAR145, N-((1r,4r)-4-(3-Chloro-4-cyanophenoxy)cyclohexyl)-6-(4-(((3S,4S)-4-(4-(2,4-dioxotetrahydropyrimidin-1(2H)-yl)-1H-indol-1-yl)-3-fluoropiperidin-1-yl)methyl)piperidin-1-yl)pyridazine-3-carboxamide, hydrochloride] |
| ≥ 50 | N#Cc1ccc(O[C@H]2CC[C@H](NC(=O)c3ccc(N4CCC(CN5CCC(n6ncc7c(N8CCC(=O)NC8=O)cccc76)CC5)CC4)nn3)CC2)cc1Cl [EAR43, N-((1r,4r)-4-(3-Chloro-4-cyanophenoxy)cyclohexyl)-6-(4-((4-(4-(2,4-dioxotetrahydropyrimidin-1(2H)-yl)-1H-indazol-1-yl)piperidin-1-yl)methyl)piperidin-1-yl)pyridazine-3-carboxamide] |
| ≥ 50 | N#Cc1ccc(O[C@H]2CC[C@H](NC(=O)c3cnc(N4CCC(CN5CCC(n6ccc7c(N8CCC(=O)NC8=O)cc(F)cc76)CC5)CC4)cn3)CC2)cc1Cl [EAR202, N-((1r,4r)-4-(3-Chloro-4-cyanophenoxy)cyclohexyl)-5-(4-((4-(4-(2,4-dioxotetrahydropyrimidin-1(2H)-yl)-6-fluoro-1H-indol-1-yl)piperidin-1-yl)methyl)piperidin-1-yl)pyrazine-2-carboxamide hydrochloride] |
| ≥ 50 | N#Cc1ccc(O[C@H]2CC[C@H](NC(=O)c3ccc(N4CC5(CC(CN6CCC(n7ncc8c(N9CCC(=O)NC9=O)cccc87)CC6)C5)C4)nn3)CC2)cc1Cl [EAR224, N-((1r,4r)-4-(3-chloro-4-cyanophenoxy)cyclohexyl)-6-(6-((4-(4-(2,4-dioxotetrahydropyrimidin-1(2H)-yl)-1H-indazol-1-yl)piperidin-1-yl)methyl)-2-azaspiro[3.3]heptan-2-yl)pyridazine-3-carboxamide] |
| ≥ 50 | CC1CC(CN2CCC(n3ncc4c(N5CCC(=O)NC5=O)cccc43)CC2)CN1c1ccc(C(=O)N[C@H]2CC[C@H](Oc3ccc(C#N)c(Cl)c3)CC2)nn1 (stereo partly drawn) [EAR232, N-((1r,4r)-4-(3-chloro-4-cyanophenoxy)cyclohexyl)-6-(4-((4-(4-(2,4-dioxotetrahydropyrimidin-1(2H)-yl)-1H-indazol-1-yl)piperidin-1-yl)methyl)-2-methylpyrrolidin-1-yl)pyridazine-3-carboxamide] |
| ≥ 50 | CC(C)n1ccc2c(N3CCC(=O)NC3=O)cc(C(=O)NCCOCCN3CCN(c4ccc(C(=O)N[C@H]5CC[C@H](Oc6ccc(C#N)c(Cl)c6)CC5)nn4)CC3)cc21 [EAR76, N-(2-(2-(4-(6-(((1r,4r)-4-(3-Chloro-4-cyanophenoxy)cyclohexyl)carbamoyl)pyridazin-3-yl)piperazin-1-yl)ethoxy)ethyl)-4-(2,4-dioxotetrahydropyrimidin-1(2H)-yl)-1-isopropyl-1H-indole-6-carboxamide] |

| SMILES | Dmax [%] |
| --- | --- |
| C[C@@H]1CN(c2ccc(C#N)c(Cl)c2)[C@@H](C)CN1C(=O)Nc1ccc(OCCCCN2CCC(n3ccc4c(N5CCC(=O)NC5=O)cncc43)CC2)nc1 [EAR111, (2R,5S)-4-(3-Chloro-4-cyanophenyl)-N-(6-(4-(4-(4-(2,4-dioxotetrahydropyrimidin-1(2H)-yl)-1H-pyrrolo[2,3-c]pyridin-1-yl)piperidin-1-yl)butoxy)pyridin-3-yl)-2,5-dimethylpiperazine-1-carboxamide] | ≥ 50 |
| CC1(C)C(=O)N(c2ccc(C#N)c(C(F)(F)F)c2)C(=S)N1c1ccc(N2CCC(CCN3CCC(n4ccc5c(N6CCC(=O)NC6=O)cncc54)CC3)CC2)cc1 [EAR100, 4-(3-(4-(4-(2-(4-(4-(2,4-Dioxotetrahydropyrimidin-1(2H)-yl)-1H-pyrrolo[2,3-c]pyridin-1-yl)piperidin-1-yl)ethyl)piperidin-1-yl)phenyl)-4,4-dimethyl-5-oxo-2-thioxoimidazolidin-1-yl)-2-(trifluoromethyl)benzonitrile formate] | ≥ 50 |
| CC(C)n1ccc2c(N3CCC(=O)NC3=O)cc(C(=O)N3CCN(CC4CCN(c5ncc(NC(=O)N6C[C@H](C)N(c7ccc(C#N)c(Cl)c7)C[C@H]6C)cn5)CC4)CC3)cc21 [EAR107, (2R,5S)-4-(3-Chloro-4-cyanophenyl)-N-(2-(4-((4-(4-(2,4-dioxotetrahydropyrimidin-1(2H)-yl)-1-isopropyl-1H-indole-6-carbonyl)piperazin-1-yl)methyl)piperidin-1-yl)pyrimidin-5-yl)-2,5-dimethylpiperazine-1-carboxamide] | ≥ 50 |
| CC1(C)C(=O)N(c2ccc(C#N)c(C(F)(F)F)c2)C(=S)N1c1ccc(N2CCC(CN3CCC(n4ccc5c(N6CCC(=O)NC6=O)cccc54)CC3)CC2)cc1 [EAR99, 4-(3-(4-(4-((4-(4-(2,4-Dioxotetrahydropyrimidin-1(2H)-yl)-1H-indol-1-yl)piperidin-1-yl)methyl)piperidin-1-yl)phenyl)-4,4-dimethyl-5-oxo-2-thioxoimidazolidin-1-yl)-2-(trifluoromethyl)benzonitrile formate] | ≥ 50 |
| N#Cc1ccc(O[C@H]2CC[C@H](NC(=O)c3ccc(N4CCC(CN5CCC(n6ncc7c(N8CCC(=O)NC8=O)cccc76)CC5)C4)nn3)CC2)cc1Cl (stereo partly drawn) [EAR152, N-((1r,4r)-4-(3-Chloro-4-cyanophenoxy)cyclohexyl)-6-(3-((4-(4-(2,4-dioxotetrahydropyrimidin-1(2H)-yl)-1H-indazol-1-yl)piperidin-1-yl)methyl)pyrrolidin-1-yl)pyridazine-3-carboxamide, formic acid salt] | ≥ 50 |
